From patent US9388147B2 (Receptos, Inc., priority 2009, dated 2016)

Target: S1P1/EDG1 (Homo sapiens, UniProt P21453)
Experiment: S1P1 CRE-bla CHOK1 reporter assay, inhibition of Forskolin induced cAMP
Format: cell-based
Conditions: agonist activity range, S1P1 CRE-bla CHOK1, 2 μM Forskolin; read-out: S1P1 ACTIVITY
Procedure: Generation of S1P1-Mediated Inhibition of cAMP Reporter Assay
A mammalian expression plasmid containing S1P1/EDG1 cloned into pcDNA3.1 was purchased from Missouri S&T cDNA Resource Centre. […] S1P1/pcDNA3.1 was transfected into the CRE-bla CHO K1 (Invitrogen) cell line, and stable single cell clones were selected using standard techniques.
S1P1 CRE-Bla CHOK1 Reporter Assay—Characterization of S1P1 Agonists
Cells were seeded into 384-well black wall/clear bottom plates at 10^4 cells/well/19.5 μl assay media (DMEM-phenol free, 0.5% charcoal/dextran stripped serum, 2 mM glutamine, 0.1 mM NEAA, 1 mM Na-Pyruvate, 25 mM Hepes) and incubated for 18 hrs at 37° C. in 5% CO2. Dose response curves (10-point) were generated in 10 mM Hepes, 0.1% Pluronic F127, in the presence of Forskolin. Cells were treated with 0.5 μl compound in the presence of 2 μM Forskolin for 4 hrs at 37° C. The FRET-based β-lactamase fluorescent substrate (LiveBLAzer™-FRET B/G Loading Kit CC4-AM; Invitrogen) was prepared according to manufacturer's directions, and incubated with cells for 2 hrs at room temperature. […] Data was analyzed by non-linear regression to determine the EC50 for inhibition of Forskolin induced cAMP.

Sequence of S1P1/EDG1 (P21453 whole entry): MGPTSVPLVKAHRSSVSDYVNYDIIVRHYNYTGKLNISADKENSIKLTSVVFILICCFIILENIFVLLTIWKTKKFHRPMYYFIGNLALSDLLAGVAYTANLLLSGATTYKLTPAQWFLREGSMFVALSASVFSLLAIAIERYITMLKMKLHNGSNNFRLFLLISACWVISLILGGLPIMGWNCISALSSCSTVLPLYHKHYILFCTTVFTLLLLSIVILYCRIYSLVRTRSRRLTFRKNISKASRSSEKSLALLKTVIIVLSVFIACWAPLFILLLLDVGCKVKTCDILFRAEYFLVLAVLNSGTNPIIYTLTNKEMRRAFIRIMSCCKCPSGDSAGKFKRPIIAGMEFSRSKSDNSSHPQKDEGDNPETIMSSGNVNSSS

| Structure (SMILES) | EC50 [nM] |
| --- | --- |
| CCN[C@H]1CCc2c(-c3noc(-c4ccc(OC(C)C)c(C#N)c4)n3)cccc21 [Compound 107] | 0.05 to 0.5 |
| CC(C)Oc1ccc(-c2nc(-c3cccc4c3CC[C@@H]4N(C)C(=O)CO)no2)cc1C#N [Compound 110] | 0.05 to 0.5 |
| CC(C)Oc1ccc(-c2nc(-c3cccc4c3CC[C@H]4N(CCO)S(C)(=O)=O)no2)cc1C#N [Compound 112, (R)-N-(4-(5-(3 cyano-4-isopropoxyphenyl)-1,2,4-oxadiazol-3-yl)-2,3-dihydro-1H-inden-1-yl)-N-(2-hydroxyethyl)methanesulfonamide] | 0.5 to 5 |
| CC(=O)N(CCO)[C@@H]1CCc2c(-c3noc(-c4ccc(OC(C)C)c(C#N)c4)n3)cccc21 [Compound 113] | 0.5 to 5 |
| CCN(CCO)[C@@H]1CCc2c(-c3noc(-c4ccc(OC(C)C)c(C#N)c4)n3)cccc21 [Compound 114] | 0.05 to 0.5 |
| CC(C)Oc1ccc(-c2nc(-c3cccc4c3CC[C@H]4N(C)CC(=O)N(C)C)no2)cc1C#N [Compound 115] | 0.5 to 5 |
| CCN(CC(=O)N(C)C)[C@@H]1CCc2c(-c3noc(-c4ccc(OC(C)C)c(C#N)c4)n3)cccc21 [Compound 116] | 0.5 to 5 |
| CC(C)Oc1ccc(-c2nc(-c3cccc4c3CC[C@H]4N(CCO)S(=O)(=O)c3ccccc3)no2)cc1C#N [Compound 117] | > 5 |
| CC(C)Oc1ccc(-c2nc(-c3cccc4c3CC[C@H]4N(CCO)CCO)no2)cc1C#N [Compound 118] | 0.05 to 0.5 |
| CC(C)Oc1ccc(-c2nc(-c3cccc4c3CC[C@@H]4NC[C@@H](O)[C@H](O)[C@H](O)CO)no2)cc1C#N [Compound 119, 2-isopropoxy-5-(3-((S)-1-(((2R,3S,4R)-2,3,4,5-tetrahydroxypentyl)amino)-2,3-dihydro-1H-inden-4-yl)-1,2,4-oxadiazol-5-yl)benzonitrile] | 0.5 to 5 |
| CC(C)Oc1ccc(-c2nc(-c3cccc4c3CC[C@@H]4NCC(=O)N(C)C)no2)cc1C(N)=O [Compound 121] | > 5 |
| CC(C)Oc1ccc(-c2nc(-c3cccc4c3CC[C@H]4NCCF)no2)cc1C#N [Compound 124, (R)-5-(3-(1-((2-fluoroethyl)amino)-2,3-dihydro-1H-inden-4-yl)-1,2,4-oxadiazol-5-yl)-2-isopropoxybenzonitrile] | 0.05 to 0.5 |
| CC(C)Oc1ccc(-c2nc(-c3cccc4c3CC[C@H]4NCCS(C)(=O)=O)no2)cc1C#N [Compound 125, (R)-2-isopropoxy-5-(3-(1-((2-(methylsulfonyl)ethyl)amino)-2,3-dihydro-1H-inden-4-yl)-1,2,4-oxadiazol-5-yl)benzonitrile] | 0.05 to 0.5 |
| CC(C)Oc1ccc(-c2nc(-c3cccc4c3CC[C@@H]4NCCS(C)(=O)=O)no2)cc1C#N [Compound 126] | 0.05 to 0.5 |
| CC(C)Oc1ccc(-c2nc(-c3cccc4c3CC[C@H]4NCC(=O)N3CC3)no2)cc1C#N [Compound 127] | 0.5 to 5 |
| CC(C)Oc1ccc(-c2nc(-c3cccc4c3CC[C@H]4NCC(=O)N3CCC3)no2)cc1C#N [Compound 128] | 0.05 to 0.5 |
| CC(C)Oc1ccc(-c2nc(-c3cccc4c3CC[C@H]4NCC(=O)N3CCCC3)no2)cc1C#N [Compound 129] | 0.05 to 0.5 |
| CC(C)Oc1ccc(-c2nc(-c3cccc4c3CC[C@H]4NCC(=O)N3CCCCC3)no2)cc1C#N [Compound 130] | 0.5 to 5 |
| CC(C)Oc1ccc(-c2nc(-c3cccc4c3CC[C@H]4NCC(=O)N3CCNCC3)no2)cc1C#N [Compound 131] | > 5 |
| CC(C)Oc1ccc(-c2nc(-c3cccc4c3CC[C@H]4NCC(=O)N3CCN(C)CC3)no2)cc1C#N [Compound 132] | 0.5 to 5 |
| CC(C)Oc1ccc(-c2nc(-c3cccc4c3CC[C@H]4NCC(=O)N3CC[C@@H](O)C3)no2)cc1C#N [Compound 133] | 0.05 to 0.5 |
| CC(C)Oc1ccc(-c2nc(-c3cccc4c3CC[C@H]4NCC(=O)N3CC[C@H](O)C3)no2)cc1C#N [Compound 134] | 0.05 to 0.5 |

| Structure (SMILES) | EC50 [nM] |
| --- | --- |
| CC(C)Oc1ccc(-c2nc(-c3cccc4c3CC[C@H]4NCC(=O)NCCO)no2)cc1C#N [Compound 135] | 0.05 to 0.5 |
| CC(C)Oc1ccc(-c2nc(-c3cccc4c3CC[C@@H]4NC(=O)CN(C)C)no2)cc1C#N [Compound 136] | 0.05 to 0.5 |
| CC(C)Oc1ccc(-c2nc(-c3cccc4c3CC[C@@H]4NC(=O)CO)no2)cc1C#N [Compound 137] | < 0.05 |
| CC(=O)N[C@@H]1CCc2c(-c3noc(-c4ccc(OC(C)C)c(C#N)c4)n3)cccc21 [Compound 138, (R)-N-(4-(5-(3-cyano-4-isopropoxyphenyl)-1,2,4-oxadiazol-3-yl)-2,3-dihydro-1H-inden-1-yl)acetamide] | < 0.05 |
| CC(=O)N[C@H]1CCc2c(-c3noc(-c4ccc(OC(C)C)c(C#N)c4)n3)cccc21 [Compound 139, (S)-N-(4-(5-(3 cyano-4-isopropoxyphenyl)-1,2,4-oxadiazol-3-yl)-2,3-dihydro-1H-inden-1-yl)acetamide] | 0.05 to 0.5 |
| CC(C)Oc1ccc(-c2nc(-c3cccc4c3CC[C@H]4NCC(F)F)no2)cc1C#N [Compound 140] | 0.5 to 5 |
| CC(C)Oc1ccc(-c2nc(-c3cccc4c3CC[C@@H]4NCC(F)F)no2)cc1C#N [Compound 141] | 0.05 to 0.5 |
| CC(C)Oc1ccc(-c2nc(-c3cccc4c3CC[C@@H]4NCCF)no2)cc1C#N [Compound 142] | 0.05 to 0.5 |
| CN[C@@H]1CCc2c(-c3noc(-c4ccc(OC(C)C)c(C#N)c4)n3)cccc21 [Compound 143] | 0.05 to 0.5 |
| CCCN[C@H]1CCc2c(-c3noc(-c4ccc(OC(C)C)c(C#N)c4)n3)cccc21 [Compound 144] | 0.05 to 0.5 |
| COC(=O)CCCN[C@H]1CCc2c(-c3noc(-c4ccc(OC(C)C)c(C#N)c4)n3)cccc21 [Compound 145] | < 0.05 |
| CC(C)Oc1ccc(-c2nc(-c3cccc4c3CC[C@@H]4NCCCC(=O)O)no2)cc1C#N [Compound 146] | < 0.05 |
| CC(C)Oc1ccc(-c2nc(-c3cccc4c3CC[C@@H]4NCCCCC(=O)O)no2)cc1C#N [Compound 148] | < 0.05 |
| COC(=O)N[C@@H]1CCc2c(-c3noc(-c4ccc(OC(C)C)c(C#N)c4)n3)cccc21 [Compound 149, (R)-methyl (4-(5-(3-cyano-4-isopropoxyphenyl)-1,2,4-oxadiazol-3-yl)-2,3-dihydro-1H-inden-1-yl)carbamate] | 0.05 to 0.5 |
| COC(=O)N[C@H]1CCc2c(-c3noc(-c4ccc(OC(C)C)c(C#N)c4)n3)cccc21 [Compound 150] | 0.05 to 0.5 |
| CCOC(=O)N[C@@H]1CCc2c(-c3noc(-c4ccc(OC(C)C)c(C#N)c4)n3)cccc21 [Compound 151] | 0.5 to 5 |
| CCOC(=O)N[C@H]1CCc2c(-c3noc(-c4ccc(OC(C)C)c(C#N)c4)n3)cccc21 [Compound 152] | 0.5 to 5 |
| CC(C)Oc1ccc(-c2nc(-c3cccc4c3CC[C@@H]4NC(=O)OCCO)no2)cc1C#N [Compound 153] | 0.05 to 0.5 |
| CC(C)Oc1ccc(-c2nc(-c3cccc4c3CC[C@H]4N3CCOC3=O)no2)cc1C#N [Compound 154, (R)-2-isopropoxy-5-(3-(1-(2-oxooxazolidin-3-yl)-2,3-dihydro-1H-inden-4-yl)-1,2,4-oxadiazol-5-yl)benzonitrile] | 0.05 to 0.5 |
| CC(C)Oc1ccc(-c2nc(-c3cccc4c3CC[C@@H]4N3CCOC3=O)no2)cc1C#N [Compound 155] | 0.05 to 0.5 |
| CC(C)Oc1ccc(-c2nc(-c3cccc4c3CC[C@H]4NCc3ccccc3)no2)cc1C#N [Compound 156] | 0.5 to 5 |
| CC(C)Oc1ccc(-c2nc(-c3cccc4c3CC[C@@H]4NCc3ccccc3)no2)cc1C#N [Compound 157] | 0.5 to 5 |
